Data as given in US9475773B2, “NK3 receptor antagonist compound (NK3RA) for use in a method for the treatment of polycystic ovary syndrome (PCOS)” (ASTRAZENECA AB, priority 2013, dated 2016).
Like-named read-outs stand apart in the source and are kept apart here.

Assays:
hrNK3 receptor = molecular target: T1, hrNK3 receptor (Homo sapiens, UniProt P29371); assay: Intracellular Calcium Mobilisation Assay (hrNK3 CHO-K1 cells, Senktide, FLIPR); assay type: cell-based
T1 construct: expressed in transfected cells; host or cells: CHO-K1
T1 sequence (P29371 1-465): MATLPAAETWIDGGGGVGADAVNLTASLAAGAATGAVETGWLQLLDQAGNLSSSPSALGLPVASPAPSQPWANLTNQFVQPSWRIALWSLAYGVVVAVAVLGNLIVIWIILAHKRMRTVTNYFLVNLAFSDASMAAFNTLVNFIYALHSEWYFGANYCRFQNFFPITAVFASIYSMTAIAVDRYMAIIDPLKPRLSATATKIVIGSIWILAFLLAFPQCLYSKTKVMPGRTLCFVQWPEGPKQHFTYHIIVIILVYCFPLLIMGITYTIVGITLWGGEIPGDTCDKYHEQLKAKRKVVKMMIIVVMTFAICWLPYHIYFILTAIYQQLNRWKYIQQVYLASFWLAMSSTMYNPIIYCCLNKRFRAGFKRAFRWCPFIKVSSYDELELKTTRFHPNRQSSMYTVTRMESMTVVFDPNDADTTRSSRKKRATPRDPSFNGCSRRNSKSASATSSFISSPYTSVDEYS
Procedure: The activity of a compound in antagonising the hrNK3 receptor expressed in CHO cells may be measured in the following Intracellular Calcium Mobilisation Assay:
CHO-K1 cells stably transfected with human recombinant Neurokinin-3 receptor (hrNK3 CHO-K1) were cultured in […] tissue culture flasks as monolayers in complete Ham's F-12 media (supplemented with 10% (v/v) FBS, 2 mM L-glutamine and […] Hygromycin B). Cultures are maintained under standard tissue culture conditions. For experiments, PBS was used to wash cells free of culture media and Trypsin was used to detach cells from the flask surface. Cells were counted, pelleted by centrifugation (100 g for 5 min) and resuspended in cell plating medium (UltraCULTURE by BioWhittaker 12-725F containing 200 mM L-Glutamine). […]
Changes in intracellular free calcium were measured fluorometrically by loading hrNK3 CHO-K1 in 384-well plates with the calcium sensitive fluorescent dye, Fluo-4AM as described previously (Xiong et. al., Bioorg. Med. Chem. Lett. 2011, 21, 1896). […]
A test compound was pre-dissolved in DMSO and incubated with cells to a final concentration of 0.1% (v/v) DMSO for 15 minutes. Assays were initiated by the addition of Senktide (purchased from Bachem) and the transient increase in Fluo-4-fluorescence monitored using a FLIPR (Fluorometric Imaging Plate Reader, Molecular Devices, Sunnyvale, U.S.A.).

mice = assay: Neurobehavioral test battery in mice; assay type: in vivo; conditions: oral doses 100, 300 and 600 mg/kg
Procedure: Safety pharmacology studies were carried out on NK3RA and included tests to investigate possible effects on the central nervous system (CNS), cardiovascular system, and respiratory system.

dogs [1] = assay: Dog electrocardiographic (ECG) telemetry study; assay type: in vivo
[2] = Pharmacokinetics and metabolism in dogs; assay type: in vivo; conditions: dog
Procedure: At low doses, the estimated Clp of The NK3RA was moderate in rat (8.3 ml/min/kg) and low in the dog (1.2 ml/min/kg). Bioavailability (F) was ˜100% in both species indicating extensive absorption in these species. The volume of distribution (Vz) was moderate (1.6 L·kg in rat and 0.81 L/kg in dog) and consistent with the physico-chemical properties of the compound. […] The NK3RA exposure decreased after multiple dosing in rats, indicating either changes in absorption or induction of The NK3RA metabolism, or both, after multiple dosing. […] T1/2 values ranged from 5.6 hours to 14.3 hours at the end of dosing for dogs dosed at 1000 mg/kg/day (2180 μmol/kg/day). There were no consistent sex differences observed in the exposure to NK3RA in these 2 species.
Following oral administration of The NK3RA in the rat, a pharmacologically active ketone metabolite appeared rapidly in plasma but slowly reached maximum concentration levels in all animals. […] T1/2 values ranged from 8.51 hours to 13.8 hours on Day 27 and Day 28 for dogs dosed with 1000 mg/kg/day (2180 μmol/kg/day) of the NK3RA. There were no consistent sex differences observed in the exposure to the metabolite in these 2 species.

rats = assay: Single and repeat-dose toxicology in rats; assay type: in vivo, rat
Procedure: Relative epididymis weight was lower at 2000 mg/kg/day.

dogs [3] = assay: Single and repeat-dose toxicology in dogs; assay type: in vivo, dog
From the text: In female dogs, ovarian uterine weights were reduced in treated animals. […] Thyroid weights were increased in the high dose group females. No other target organs have been identified.
Epididymides and prostate glands had gained maturity, but aspermia was present in all dogs and testicular immaturity remained. […]

female rats = assay: Rat female fertility and embryofetal development study; assay type: in vivo
Procedure: In female rats the No Adverse Effect Dose Level for fetal minor abnormalities and variants was 1000 mg/kg/day.

serum testosterone = assay: SAD and MAD studies, serum testosterone in healthy male volunteers; assay type: in vivo, human
[4] = rat 3 month study, 2000 mg/kg/day

## CC[C@H](NC(=O)c1c(NS(C)(=O)=O)c(-c2ccccc2)nc2ccccc12)c1ccccc1 [NK3RA, 3-(methanesulfonamido)-2-phenyl-N-[(1S)-1-phenylpropyl]quinoline-4-carboxamide]
hrNK3 receptor
  activity at the hrNK3 receptor expressed in CHO cells: antagonist of the hrNK3 receptor
mice
  neurobehavioral effects: transient deficits in gait and spontaneous motor activity
  time to full recovery: ≤ 24 h
Dogs [1]
  effect on blood pressure: no effect
  other ECG parameters including QTc interval duration: No other ECG parameter, including QTc interval duration, was affected
Dogs [1]; highest dose tested 2000 mg/kg orally, transient, dose-related
  reduction in heart rate: up to 29%
[2]
  accumulation after 28-day repeat dosing regimen: no accumulation or reduction
[2]; oral administration
  rate of absorption: more rapidly absorbed
[2]; plasma, oral, dogs dosed at 1000 mg/kg/day (2180 μmol/kg/day), read-out: T1/2 at the end of dosing
  half-life: 5.6 to 14.3 h
[2]; plasma, oral, read-out: Bioavailability (F)
  bioavailability: ~100%
[2]; plasma, read-out: elimination half-life (T½) (converted)
  half-life: 9.5 h
[2]; plasma, read-out: volume of distribution (Vz)
  Vd: 0.81 L/kg
[2]; plasma, low doses, estimated, read-out: Clp
  clearance: 1.2 mL/min/kg
rats; rat 3 month study
  histological changes: no NK3RA-related histological changes
rats; [4]
  absolute testis weight: lower
  relative epididymis weight: lower
rats; rat 3 month study, 200 and 2000 mg/kg/day (dose-related)
  relative testis weight: lower than controls
rats; rats
  findings at the highest doses: increased liver weights with no histological correlate
  findings in the female reproductive system, repeat-dose toxicology studies: no findings in the female reproductive system
rats; rats, up to 2000 mg/kg/day
  tolerability, multiple dosing for three month: well tolerated
rats; rats, up to the limit dose of 2000 mg/kg
  tolerability, single dosing: well tolerated
Dogs [3]; dog
  NOEL (testis, epididymis and prostate weights): no NOEL was established
  plasma testosterone levels throughout the study: virtually totally suppressed
  testes weights following the recovery period: only partially returned to control values
  time after dosing by which plasma testosterone was very low: ≤ 4 h
Dogs [3]; dogs
  hepatobiliary toxicity: hepatobiliary toxicity in one high dose male
Dogs [3]; dogs, high dose group females
  thyroid weights: increased
Dogs [3]; dogs, mid and high doses
  liver weights: Increased
Dogs [3]; dogs, up to 1000 mg/kg/day
  tolerability, multiple dosing for three month: well tolerated
Dogs [3]; dogs, up to the limit dose of 2000 mg/kg
  tolerability, single dosing: well tolerated
Dogs [3]; female dogs
  female reproductive findings, 3-month study: reductions in ovarian and uterine weights and an increased incidence of anestrus
  ovarian uterine weights: reduced
Dogs [3]; female dogs, following 3 months off-dose
  recovery of female reproductive findings: complete recovery
Dogs [3]; male dogs
  target organs in males: the testis, epididymis, and prostate were target organs
Female rats; female rats
  No Adverse Effect Dose Level for fetal minor abnormalities and variants: 1000 mg/kg/day
Female rats; rat, in vivo
  estrus cycles, mating performance and fertility: Disturbed estrus cycles were seen with no adverse effects on mating performance or fertility
Serum testosterone; healthy male volunteers, SAD 1-80 mg, MAD 5 mg QD to 30 mg BID for up to 6 days
  serum testosterone: dose dependent reduction in serum testosterone
Serum testosterone; male volunteers and male schizophrenia patients
  durability of total testosterone reduction: reductions in total testosterone levels durable up to 28 days
